This note sets out measurements from ChEMBL document CHEMBL3864130, “A novel lead of P-selectin inhibitor: Discovery, synthesis, bioassays and action mechanism” (2016).

The structures appear in SMILES notation. Active and inactive are the calls of the source. The calls are words filed in the database; no cut-off is given here.

Test [1] has as its target T1, P-selectin (Homo sapiens) (UniProt P16109).
T1 sequence (whole entry): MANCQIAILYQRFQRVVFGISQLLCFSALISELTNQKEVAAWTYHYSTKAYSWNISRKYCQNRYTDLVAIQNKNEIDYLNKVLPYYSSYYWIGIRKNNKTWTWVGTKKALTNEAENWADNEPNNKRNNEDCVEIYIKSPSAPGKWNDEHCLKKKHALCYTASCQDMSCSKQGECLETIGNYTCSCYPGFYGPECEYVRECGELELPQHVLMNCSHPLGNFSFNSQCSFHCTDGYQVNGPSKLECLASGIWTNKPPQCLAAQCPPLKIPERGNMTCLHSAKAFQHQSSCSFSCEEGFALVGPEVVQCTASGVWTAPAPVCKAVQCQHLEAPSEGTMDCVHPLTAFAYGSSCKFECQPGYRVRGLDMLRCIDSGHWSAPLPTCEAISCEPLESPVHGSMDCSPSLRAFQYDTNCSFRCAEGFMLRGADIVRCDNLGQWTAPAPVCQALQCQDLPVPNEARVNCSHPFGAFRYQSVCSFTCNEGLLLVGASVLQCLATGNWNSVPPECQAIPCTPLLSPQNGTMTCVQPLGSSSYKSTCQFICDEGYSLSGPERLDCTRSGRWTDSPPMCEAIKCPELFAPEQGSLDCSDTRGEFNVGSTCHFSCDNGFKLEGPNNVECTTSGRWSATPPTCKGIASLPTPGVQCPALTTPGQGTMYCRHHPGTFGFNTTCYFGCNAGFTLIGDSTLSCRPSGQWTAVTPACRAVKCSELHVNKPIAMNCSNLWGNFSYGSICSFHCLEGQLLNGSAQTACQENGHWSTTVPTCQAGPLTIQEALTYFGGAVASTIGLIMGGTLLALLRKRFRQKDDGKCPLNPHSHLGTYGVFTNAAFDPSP
Briefly: Binding affinity to P-selectin (unknown origin) assessed as hyperchromic effect at 340.8 nanometer at 0.42 mM by UV spectroscopy.

Test [2] concerns the target T1, P-selectin (Homo sapiens). Briefly: Binding affinity to P-selectin (unknown origin) assessed as red shift at 295.4 nanometer at 0.42 mM by UV spectroscopy.
Test [3] addresses T1, P-selectin (Homo sapiens). Briefly: Binding affinity to P-selectin (unknown origin) assessed as red shift at 352 nanometer at 0.42 mM by UV spectroscopy.
For test [4], the system named is Mus musculus. Briefly: Decrease in serum IL8 level in xylene induced ICR mouse ear edema model administered orally 30 mins prior to topical administration of xylene. It counts as functional.
Test [5] concerns Mus musculus. Briefly: Antithrombosis activity in ferric chloride induced ICR mouse model of thrombosis assessed as inhibition of thrombus formation at 200 nmol/kg, po measured after 15 mins. It counts as functional, organism-based.
In test [6] the test system is Mus musculus. The test is described as follows: Decrease in serum TNF-alpha level in xylene induced ICR mouse ear edema model administered orally 30 mins prior to topical administration of xylene. It counts as functional.
Test [7] is filed under the species Rattus norvegicus. The test is described as follows: Potency index, ratio of compound efficacy to aspirin efficacy for antithrombotic activity in Sprague-Dawley rat model of thrombosis. It is filed as functional.
Test [8] deals with T2, P-selectin (Rattus norvegicus) (UniProt P98106).
T2 sequence (whole entry): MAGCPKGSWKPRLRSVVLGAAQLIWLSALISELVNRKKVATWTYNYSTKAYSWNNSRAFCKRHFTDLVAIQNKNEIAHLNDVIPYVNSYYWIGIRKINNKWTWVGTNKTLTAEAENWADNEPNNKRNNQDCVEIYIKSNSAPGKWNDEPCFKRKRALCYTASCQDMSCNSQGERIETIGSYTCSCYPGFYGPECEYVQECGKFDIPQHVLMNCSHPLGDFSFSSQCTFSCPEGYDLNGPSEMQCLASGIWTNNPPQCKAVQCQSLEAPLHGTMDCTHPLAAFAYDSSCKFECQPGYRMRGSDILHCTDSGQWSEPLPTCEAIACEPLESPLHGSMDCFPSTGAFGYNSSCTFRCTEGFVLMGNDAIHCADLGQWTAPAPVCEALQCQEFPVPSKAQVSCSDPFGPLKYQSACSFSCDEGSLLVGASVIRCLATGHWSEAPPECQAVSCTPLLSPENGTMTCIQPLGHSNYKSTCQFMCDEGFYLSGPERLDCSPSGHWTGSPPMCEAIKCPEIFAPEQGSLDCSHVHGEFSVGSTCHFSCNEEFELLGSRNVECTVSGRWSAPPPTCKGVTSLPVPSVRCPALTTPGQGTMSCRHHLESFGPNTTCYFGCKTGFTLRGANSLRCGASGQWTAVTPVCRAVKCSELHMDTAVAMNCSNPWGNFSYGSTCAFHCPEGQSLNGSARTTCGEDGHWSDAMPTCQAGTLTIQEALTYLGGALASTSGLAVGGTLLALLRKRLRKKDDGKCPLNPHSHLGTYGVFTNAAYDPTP
Briefly: Downregulation of P-selectin expression in arachidonic acid-activated Sprague-Dawley rat platelets assessed as fluorescence intensity at 200 nM pretreated for 30 mins followed by arachidonic acid addition measured after 5 mins by phycoerythrin-anti-[…] staining-based flow cytometry (reference value: 1621).

The species entered for test [9] is Mus musculus. The test is described as follows: Potency index, ratio of compound efficacy to aspirin efficacy in ferric chloride induced ICR mouse model of thrombosis. It counts as functional.
For test [10], the target named is T2, P-selectin (Rattus norvegicus). The test is described as follows: Downregulation of P-selectin expression in arachidonic acid-activated Sprague-Dawley rat platelets assessed as decrease in fluorescence intensity pretreated for 30 mins followed by arachidonic acid addition measured after 5 mins by phycoerythrin-anti-[…] staining-based flow cytometry.
Test [11] shares this target. Briefly: Downregulation of P-selectin expression in arachidonic acid-activated Sprague-Dawley rat platelets assessed as fluorescence intensity at 2000 nM pretreated for 30 mins followed by arachidonic acid addition measured after 5 mins by phycoerythrin-anti-[…] staining-based flow cytometry (reference value: 1621).
Test [12] has the same target. The test is described as follows: Downregulation of P-selectin expression in arachidonic acid-activated Sprague-Dawley rat platelets assessed as P-selectin levels pretreated with platelets followed by arachidonic acid addition measured after 3 mins by ELISA.
Test [13] addresses T1, P-selectin (Homo sapiens). Briefly: Binding affinity to P-selectin (unknown origin) assessed as maximal absorbance at 340.8 nanometer at 0.18 mM by UV spectroscopy.
In test [14] the target is T2, P-selectin (Rattus norvegicus). Briefly: Downregulation of P-selectin expression in arachidonic acid-activated Sprague-Dawley rat platelets assessed as mean fluorescence intensity at 20 nM pretreated for 30 mins followed by arachidonic acid addition measured after 5 mins by phycoerythrin-anti-[…] staining-based flow cytometry (reference value: 1621).
Test [15] deals with T1, P-selectin (Homo sapiens). The test is described as follows: Binding affinity to P-selectin (unknown origin) assessed as maximal absorbance at 295.4 nanometer at 0.18 mM by UV spectroscopy.
The subject of test [16] is Rattus norvegicus. The test is described as follows: Antithrombotic activity in po dosed Sprague-Dawley rat model of thrombosis assessed as inhibition of thrombus formation measured after 30 mins. It is filed as functional.
Test [17] addresses T1, P-selectin (Homo sapiens). The test is described as follows: Binding affinity to P-selectin (unknown origin) assessed as bathochromic shift at 340.8 nanometer at 0.42 mM by UV spectroscopy.
Test [18] concerns Mus musculus. The test is described as follows: Antiinflammatory activity in xylene induced ICR mouse ear edema model assessed as decrease in ear swelling pretreated orally for 30 mins followed by topical administration of xylene measured after 2 hrs. It counts as functional.
In test [19] the test system is Mus musculus. The test is described as follows: Potency index, ratio of compound efficacy to aspirin efficacy in xylene induced ICR mouse ear edema model. It counts as functional.
Test [20] concerns the target T2, P-selectin (Rattus norvegicus). Briefly: Downregulation of P-selectin expression in arachidonic acid-activated Sprague-Dawley rat platelets at 200 to 2000 nM pretreated with platelets followed by arachidonic acid addition measured after 3 mins by ELISA.
Test [21] has as its system Mus musculus. Briefly: Decrease in serum IL8 level in xylene induced ICR mouse ear edema model at 2 nmol/kg,po pretreated for 30 mins followed by topical administration of xylene. It is filed as functional.
Test [22] addresses T1, P-selectin (Homo sapiens). Briefly: Binding affinity to P-selectin (unknown origin) assessed as maximal absorbance at 352 nanometer at 0.18 mM by UV spectroscopy.
Test [23] relates to Mus musculus. Briefly: Antithrombosis activity in ferric cholride induced ICR mouse model of thrombosis assessed as inhibition of thrombus formation at 240 umol/kg, po measured after 15 mins. It is filed as functional, organism-based.
In test [24] the test system is Mus musculus. The test is described as follows: Antiinflammatory activity in xylene induced ICR mouse ear edema model assessed as decrease in ear swelling at 0.11 mmol/kg, po pretreated for 30 mins followed by topical administration of xylene measured after 2 hrs. It counts as functional, organism-based.
Test [25] deals with Rattus norvegicus. The test is described as follows: Antithrombotic activity in Sprague-Dawley rat model of thrombosis assessed as inhibition of thrombus formation at 167 umol/kg, po measured after 30 mins. It counts as functional, organism-based.

Consider `O=C(O)[C@H](Cc1ccccc1)NCCc1nc(CO)cc2c1[nH]c1ccccc12`, for which the Activity is 51.2% in test [1]; 1.4 nm in test [2]; 1.4 nm in test [3]; “Dose-dependent effect” in the test with Mus musculus [4]; “Dose-dependent effect” in [10]; 0.355 in test [13]. Besides, the Activity in [15] is 0.451; in [17], 0.6 nm; with Mus musculus [18] it was “Dose-dependent effect”; in test [22] it was 0.339. The MEC in the test on Mus musculus [4] was found to be 2 nmol/kg; in the test on Mus musculus [6] it was 200 nmol/kg; in test [10], 20 nM; in test [12] it was 200 nM. Moreover, the inhibition result in the test with Mus musculus [5] is “Active”. The Ratio in the test listed under Rattus norvegicus [7] is given as 835; in the test filed under Mus musculus [9], 1200; in the test on Mus musculus [19], 550. Further, the Flu intensity worked out at 754 in test [8], 665 in test [11] and 871 in test [14]. Also, the MED with Rattus norvegicus [16] and in the test with Mus musculus [18] was 20 nmol/kg in each case. Further, the inhibition result with Rattus norvegicus [16] is “Dose-dependent effect”. Further, the outcome (in test [20]; with Mus musculus [21]) was Active.

Turning to `CC(=O)Oc1ccccc1C(=O)O`, the inhibition entry with Mus musculus [23] and with Rattus norvegicus [25] was “Active” throughout. Moreover, the result in the test with Mus musculus [24] was Active.
